Values quoted from earlier work, collected in patent publication US5541094A, “Glyoxylic acid/aminomethylphosphonic acid mixtures prepared using a microbial transformant” (E. I. du Pont de Nemours and Company, priority 1994, dated 1996).

Tested on: glycolate oxidase
Details: 100 mM; enzyme extracted from tobacco leaves

## O=C(O)C(=O)O [Oxalic acid]
  inhibition of the catalytic action of the glycolate oxidase: inhibit the catalytic action of the glycolate oxidase
